Reference: patent US20240325398A1, “COMBINATION THERAPIES” (Infinity Pharmaceuticals, Inc., priority 2014, published 2024)

Assays:
HH = assay: Combination study, ATPLite 72 h, dose matrix (Synergy Score, CI50); type: cell-based; conditions: combination with Compound 1
Description: The method is described as follows.
Additive effect is CI=1.0. […] Antagonistic effect is CI>1.0.
The Synergy Score is calculated as: […]

HBL-1 = assay: as above; conditions: combination with Compound 1, 72 h
Description: (§1) Cells are thawed from a liquid nitrogen preserved state. Once cells have been expanded and divide at their expected doubling times, screening begins. Cells are seeded in growth media in either black 1536-well or 384-well tissue culture treated plates. Cells are then equilibrated in assay plates via centrifugation and placed in incubators attached to the Dosing Modules at 37° C. for 24 hours before treatment. […] These Tzero (To) plates are read using ultra-sensitive luminescence on Envision plate readers (Perkin Elmer). Treated assay plates are incubated with compound for 72 hours. After 72 hours, plates are developed for endpoint analysis using ATPLite. All data points are collected via automated processes, quality controlled and analyzed using Zalicus software.
(§2) where T is treated cell count and V is untreated (vehicle) cell count (at 72 hours). I ranges from 0% (when T=V) to 100% (when T=0). […] The measure of effect in the experiment can be the inhibition of cellular response relative to the untreated level (vehicle alone). […] The inhibition ranges from 0% at the untreated level to 100% when T=0. Inhibition levels are negative for agents that actually increase levels. Other effect measures, such as an activity ratio r=T/V may be more appropriate for some assays. When activity ratios (e.g, fold increase over stimulated control) are being used, the effect can be measured using an induction 1=ln(T/V). With this definition, all effect expressions are the same as for inhibition.
(§3) Growth Inhibition (GI) is used as a measure of cell viability. […] A GI reading of 100% represents complete growth inhibition—T72 compound-treated and T0 vehicle signals are matched. […] A GI reading of 200% represents complete death of all cells in the culture well. Compounds reaching an activity plateau of GI 200% are considered cytotoxic. GI is calculated by applying the following test and equation:
(§4) Combination analysis data were collected in a 6×6 dose matrix. Synergy is calculated by comparing a combination's response to those of its single compound, against the drug-with-itself dose-additive reference model. Deviations from dose additivity may be assessed visually on an isobologram or numerically with a Combination Index (CI). […] Additive effect is CI=1.0. […] Antagonistic effect is CI>1.0.
(§5) To measure combination effects in excess of Loewe additivity, a scalar measure to characterize the strength of synergistic interaction termed the Synergy Score is devised. The Synergy Score is calculated as:
(§6) The fractional inhibition for each component agent and combination point in the matrix is calculated relative to the median of all vehicle-treated control wells. The Synergy Score equation integrates the experimentally-observed activity volume at each point in the matrix in excess of a model surface numerically derived from the activity of the component agents using the Loewe model for additivity. Additional terms in the Synergy Score equation (above) are used to normalize for various dilution factors used for individual agents and to allow for comparison of synergy scores across an entire experiment. The inclusion of positive inhibition gating or an Idata multiplier removes noise near the zero effect level, and biases results for synergistic interactions at that occur at high activity levels.
(§7) Loewe Volume (Loewe Vol) is used to assess the overall magnitude of the combination interaction in excess of the Loewe additivity model. Loewe Volume is particularly useful when distinguishing synergistic increases in a phenotypic activity (positive Loewe Volume) versus synergistic antagonisms (negative Loewe Volume). […] This model defines additivity as a non-synergistic combination interaction where the combination dose matrix surface should be indistinguishable from either drug crossed with itself. The calculation for Loewe additivity is:

OCI-Ly3 = assay: as above; conditions: combination with Compound 1; OCI-Ly3; 72 h
Description: as §1, §2, §3, §4, §5, §6, §7

U-2932 = assay: as above; conditions: combination with Compound 1, 72 h
Description: as §1, §2, §3, §4, §5, §6, §7

TMD8 = assay: as above; conditions: combination with Compound 1
OCI-Ly7 = assay: as above; conditions: combination with Compound 1, 72 h
Description: as §1
(§8) The measure of effect in the experiment can be the inhibition of cellular response relative to the untreated level (vehicle alone). […] The inhibition ranges from 0% at the untreated level to 100% when T=0. Inhibition levels are negative for agents that actually increase levels.
as §3, §4, §5, §6, §7

SU-DHL-4-epst = assay: as above; conditions: combination with Compound 1, 72 h
Description: as §1, §8, §3, §4, §5, §6, §7

DOHH-2 = assay: as above; conditions: combination with Compound 1, 72 h
Farage = assay: as above; conditions: combination with Compound 1
Description: as §1, §2, §3, §4
The isobologram was drawn by identifying the locus of concentrations that correspond to crossing the indicated inhibition level. This is done by finding the crossing point for each single agent concentration in a dose matrix across the concentrations of the other single agent. Practically, each vertical concentration CY is held fixed while a bisection algorithm is used to identify the horizontal concentration CX in combination with that vertical dose that gives the chosen effect level in the response surface Z(CX,CY). These concentrations are then connected by linear interpolation to generate the isobologram display. For synergistic interactions, the isobologram contour fall below the additivity threshold and approaches the origin, and an antagonistic interaction would lie above the additivity threshold. The error bars represent the uncertainty arising from the individual data points used to generate the isobologram. The uncertainty for each crossing point is estimated from the response errors using bisection to find the concentrations where Z−αZ(CX,CY) and Z+σZ(CX,CY) cross Icut, where αZ is the standard deviation of the residual error on the effect scale.
as §5
The fractional inhibition for each component agent and combination point in the matrix is calculated relative to the median of all vehicle-treated control wells.

SU-DHL-10-epst = assay: as above; conditions: combination with Compound 1, 72 h
RL = assay: as above; conditions: combination with Compound 1, 72 h
KARPAS-422 = assay: as above; conditions: combination with Compound 1, 72 h
WSU-NHL = assay: as above; conditions: combination with Compound 1, 72 h
KARPAS-299 = assay: as above; conditions: combination with Compound 1
Description: as §1, §2, §3, §4, §5, §6
(§9) Loewe Volume (Loewe Vol) is used to assess the overall magnitude of the combination interaction in excess of the Loewe additivity model. Loewe Volume is particularly useful when distinguishing synergistic increases in a phenotypic activity (positive Loewe Volume) versus synergistic antagonisms (negative Loewe Volume). […] This model defines additivity as a non-synergistic combination interaction where the combination dose matrix surface should be indistinguishable from either drug crossed with itself.

GRANTA-519 = assay: as above; conditions: combination with Compound 1
Jeko-1 = assay: as above; conditions: combination with Compound 1
Mino = assay: as above; conditions: combination with Compound 1
Description: as §1, §2, §3, §4, §5, §6, §9

NCI-H929 = assay: as above; conditions: combination with Compound 1
Description: as §1, §2, §3, §4, §5, §6, §9

[1] = as above; conditions: combination with Compound 1; OPM-2
OMP-2 = assay: as above; conditions: combination with Compound 1; OPM-2
RPMI-8226 = assay: as above; conditions: combination with Compound 1

With CO[C@H]1C[C@@H]2CC[C@@H](C)[C@@](O)(O2)C(=O)C(=O)N2CCCC[C@H]2C(=O)O[C@H]([C@H](C)C[C@@H]2CC[C@@H](OCCO)[C@H](OC)C2)CC(=O)[C@H](C)/C=C(\C)[C@@H](O)[C@@H](OC)C(=O)[C@H](C)C[C@H](C)/C=C/C=C/C=C/1C [everolimus, dihydroxy-12-[(2R)-1-[(1S,3R,4R)-4-(2-hydroxyethoxy)-3-methoxycyclohexyl]propan-2-yl]-19,30-dimethoxy-15,17,21,23,29,35-hexamethyl-11,36-dioxa-4-azatricyclo[30.3.1.0]hexatriaconta-16,24,26,28-tetraene-2,3,10,14,20-pentone] the CI50 growth inhibition (HH) was “S (S=0.01 to <0.5)”, the CI50 inhibition (HH) was “S (S=0.01 to <0.5)” and the “Synergy Score growth inhibition” value (HH) was “A3 (A3=>3)”. For the same molecule, the “Synergy Score inhibition” value (HH) was “A2 (A2=1 to <3)”, the CI50 growth inhibition (HBL-1) was “T (T=0.5 to <0.7)” and the CI50 inhibition (HBL-1) was “U (U=0.7 to <1)”. For the same molecule, the “Synergy Score growth inhibition” value (HBL-1) was “A2 (A2=1 to <3)”, the “Synergy Score inhibition” value (HBL-1) was “A1 (A1=0.0001 to <1)” and the CI50 growth inhibition (OCI-Ly3) was “U (U=0.7 to <1)”. For the same molecule, the “Synergy Score growth inhibition” value (OCI-Ly3) was “A2 (A2=1 to <3)”, the “Synergy Score inhibition” value (OCI-Ly3) was “A1 (A1=0.0001 to <1)” and the CI50 growth inhibition (U-2932) was “S (S=0.01 to <0.5)”. For the same molecule, the “Synergy Score growth inhibition” value (U-2932) was “A2 (A2=1 to <3)”, the “Synergy Score inhibition” value (U-2932) was “A2 (A2=1 to <3)” and the CI50 growth inhibition (TMD8; TMD8, 72 h) was “T (T=0.5 to <0.7)”. For the same molecule, the CI50 inhibition (TMD8; TMD8, 72 h) was “S (S=0.01 to <0.5)”, the “Synergy Score growth inhibition” value (TMD8; TMD8, 72 h) was “A3 (A3=>3)” and the “Synergy Score inhibition” value (TMD8; TMD8, 72 h) was “A3 (A3=>3)”. The “effect of the combination (isobologram)” value (TMD8; TMD8 DLBCL cell line, FIG. 1-3) was “synergistic effect”, the CI50 growth inhibition (OCI-Ly7) was “S (S=0.01 to <0.5)” and the CI50 inhibition (OCI-Ly7) was “W (W=≥1)”. For the same molecule, the “Synergy Score growth inhibition” value (OCI-Ly7) was “A2 (A2=1 to <3)”, the “Synergy Score inhibition” value (OCI-Ly7) was “A2 (A2=1 to <3)” and the CI50 growth inhibition (SU-DHL-4-epst) was “S (S=0.01 to <0.5)”. For the same molecule, the CI50 inhibition (SU-DHL-4-epst) was “S (S=0.01 to <0.5)”, the “Synergy Score growth inhibition” value (SU-DHL-4-epst) was “A3 (A3=>3)” and the “Synergy Score inhibition” value (SU-DHL-4-epst) was “A3 (A3=>3)”. The CI50 growth inhibition (DOHH-2) was “S (S=0.01 to <0.5)”, the CI50 inhibition (DOHH-2) was “S (S=0.01 to <0.5)” and the “Synergy Score growth inhibition” value (DOHH-2) was “A3 (A3=>3)”. The “Synergy Score inhibition” value (DOHH-2) was “A3 (A3=>3)”, the “effect of the combination (isobologram)” value (Farage; Farage DLBCL cell line, FIG. 4-5) was “synergistic effect” and the CI50 growth inhibition (Farage; Farage, 72 h) was “T (T=0.5 to <0.7)”. The CI50 inhibition (Farage; Farage, 72 h) was “S (S=0.01 to <0.5)”, the “Synergy Score growth inhibition” value (Farage; Farage, 72 h) was “A3 (A3=>3)” and the “Synergy Score inhibition” value (Farage; Farage, 72 h) was “A3 (A3=>3)”. The CI50 growth inhibition (SU-DHL-10-epst) was “S (S=0.01 to <0.5)”, the CI50 inhibition (SU-DHL-10-epst) was “S (S=0.01 to <0.5)” and the “Synergy Score growth inhibition” value (SU-DHL-10-epst) was “A3 (A3=>3)”. For the same molecule, the “Synergy Score inhibition” value (SU-DHL-10-epst) was “A3 (A3=>3)”, the CI50 growth inhibition (RL) was “T (T=0.5 to <0.7)” and the CI50 inhibition (RL) was “S (S=0.01 to <0.5)”. For the same molecule, the “Synergy Score growth inhibition” value (RL) was “A2 (A2=1 to <3)”, the “Synergy Score inhibition” value (RL) was “A2 (A2=1 to <3)” and the CI50 growth inhibition (KARPAS-422) was “W (W=≥1)”. For the same molecule, the CI50 inhibition (KARPAS-422) was “S (S=0.01 to <0.5)”, the “Synergy Score growth inhibition” value (KARPAS-422) was “A2 (A2=1 to <3)” and the “Synergy Score inhibition” value (KARPAS-422) was “A2 (A2=1 to <3)”. The CI50 growth inhibition (WSU-NHL) was “T (T=0.5 to <0.7)”, the CI50 inhibition (WSU-NHL) was “S (S=0.01 to <0.5)” and the “Synergy Score growth inhibition” value (WSU-NHL) was “A3 (A3=>3)”. For the same molecule, the “Synergy Score inhibition” value (WSU-NHL) was “A3 (A3=>3)”, the CI50 growth inhibition (KARPAS-299) was “U (U=0.7 to <1)” and the CI50 inhibition (KARPAS-299) was “W (W=≥1)”. The “Synergy Score growth inhibition” value (KARPAS-299) was “A1 (A1=0.0001 to <1)”, the “Synergy Score inhibition” value (KARPAS-299) was “A1 (A1=0.0001 to <1)” and the CI50 growth inhibition (GRANTA-519) was “S (S=0.01 to <0.5)”. For the same molecule, the “Synergy Score growth inhibition” value (GRANTA-519) was “A2 (A2=1 to <3)”, the “Synergy Score inhibition” value (GRANTA-519) was “A1 (A1=0.0001 to <1)” and the CI50 growth inhibition (Jeko-1) was “T (T=0.5 to <0.7)”. The CI50 inhibition (Jeko-1) was “U (U=0.7 to <1)”, the “Synergy Score growth inhibition” value (Jeko-1) was “A2 (A2=1 to <3)” and the “Synergy Score inhibition” value (Jeko-1) was “A2 (A2=1 to <3)”. For the same molecule, the CI50 growth inhibition (Mino) was “T (T=0.5 to <0.7)”, the CI50 inhibition (Mino) was “U (U=0.7 to <1)” and the “Synergy Score growth inhibition” value (Mino) was “A2 (A2=1 to <3)”. The “Synergy Score inhibition” value (Mino) was “A2 (A2=1 to <3)”, the CI50 growth inhibition (NCI-H929) was “S (S=0.01 to <0.5)” and the CI50 inhibition (NCI-H929) was “T (T=0.5 to <0.7)”. The “Synergy Score growth inhibition” value (NCI-H929) was “A3 (A3=>3)”, the “Synergy Score inhibition” value (NCI-H929) was “A2 (A2=1 to <3)” and the CI50 growth inhibition [1] was “S (S=0.01 to <0.5)”. For the same molecule, the CI50 inhibition (OMP-2) was “W (W=≥1)”, the “Synergy Score growth inhibition” value (OMP-2) was “A2 (A2=1 to <3)” and the “Synergy Score inhibition” value (OMP-2) was “A2 (A2=1 to <3)”. For the same molecule, the CI50 growth inhibition (RPMI-8226) was “U (U=0.7 to <1)”, the CI50 inhibition (RPMI-8226) was “W (W=≥1)” and the “Synergy Score growth inhibition” value (RPMI-8226) was “A2 (A2=1 to <3)”. The “Synergy Score inhibition” value (RPMI-8226) was “A1 (A1=0.0001 to <1)”.
